pEC50, pIC50: −log10 of the molar value.
Experiments:
[1] = target: T1, IRE1α (Homo sapiens (Human), UniProt O75460); test: In vitro FRET assay; type: biochemical; conditions: XBP1 RNA probe
Method: In vitro FRET assay was performed to evaluate the ability of select compounds to inhibit IRE1, the results of which are summarized in Table 3. To perform the in vitro FRET assay, 1× complete assay buffer (CAB; […], 50 mM sodium citrate pH 7.15, 1 mM magnesium acetate, 0.02% tween 20) was used to dilute SignalChem IRE1α protein to a final concentration of 2 nM. Selected compounds were serially diluted with DMSO in a non-binding black 384-well plate for a total of 15 ul in each well. 2 ul of the serially diluted compound or DMSO control were then added to new wells containing 98 ul of 1×CAB, for a total volume of 100 ul, 10 ul of which were then transferred to wells of a new plate. 5 ul of the diluted IRE1α was then added to each well. 5 ul of a […] XBP1 RNA probe was then added to each well. Fluorescence was then read over 30 minutes in kinetic mode (485/515 nm).
Two RNA probes were used, XBP1 wildtype (SEQ ID NO: 2) which is able to be spliced by active IRE1α or XBP1 mutant (SEQ ID NO: 3) which is unable to be spliced. Each probe contained a 5′ 6-FAM modification and a 3′ IOWA Black FQ modification.
A second FRET assay was performed to assess ATP-mediated inhibition. In this case, compounds and IRE1α were prepared and combined as discussed above, with the addition of ATP up to 1 mM final concentration. This mixture was incubated at room temperature for 60 minutes and then 5 ul of 400 nM XBP1 wildtype or mutant RNA probe was added. Plates were then read over 30 minutes in kinetic mode (485/515 nm) and rate of fluorescence increase calculated for different compound dilutions to determine IC50 (Table 3).

[2] = system: 293T cells; test: Growth assay (cytotoxicity); type: cell-based; conditions: Homo sapiens, HEK-293T, 48 h, 2 day incubation, read-out: percentage growth at 5 uM
Method: A growth assay is performed to evaluate the compounds disclosed in Table 1 for cytotoxicity. Briefly, 5,000,000 293T cells are resuspended in 18 mL of cDMEM for a final concentration of 277,777 cells/mL. 180 μL (50,000 cells) cDMEM was seeded per well in 96 well flat bottom plate, with some wells left unfilled. In a 96 well plate, […] cDMEM and 1 uL of any one of the compounds disclosed herein. 133.3 uL cDMEM is added to wells 1, 2, 3, 5, 6, 7, 9, 10, and 11 of row A. Wells are serially diluted with 66.7 uL (highest concentration on right, lowest on left) to the total concentrations shown below. 20 uL of each dilution is transferred in duplicate to the cells plated in the 96-well plate. The plate is then placed in a humidified chamber for a 2 day incubation, and then photographed (media is more yellow in wells with potent cell growth). Absorbance is then measured at […] (lower for more acidic media) and […] (higher for more acidic media).

[3] = target: T1, IRE1α; test: In vitro luciferase assay (IRE1α Endoribonuclease Nanoluciferase Assay); type: cell-based; conditions: 293T cells, XBP1 luciferase reporter
Method: Compounds disclosed herein were assessed for disruption of IRE-1 signaling using a IRE1α Endoribonuclease Nanoluciferase Assay. Briefly, 2.5×10^6 293T cells were seeded in a 10 cm^2 tissue culture plate. About 24 hours later, the cells were transfected with Effectene. In a 15 mL Tube, the following was added: 2 μg XBP1 luciferase reporter plasmid (PGK-Luc2-P2A-XBP1u-Nanoluciferase-PEST); 300 μl EC buffer; and 16 μl Enhancer, followed by incubation at room temp for 5 minutes. Next, 60 μl Effectene (Qiagen 301427) was added, followed by incubation at room temperature for 10 minutes. 2.6 mL cDMEM media was added. Old media was aspirated from the cells, followed by addition of 7 mL fresh media. Full transfection mixture was added dropwise to cells. Cells were incubated for 6 hours, followed by trypsinization, centrifugation and resuspension in 11 mL media. 100 uL of cells were plated per a well in a 96 well plate. A day later, ER stressors of choice+/−inhibitors were added. To harvest, media was aspirated from cells completely, then 50 uL 1× passive lysis buffer (Promega: E1941) was added per well and put on shaker (300 rpm) for 30 minutes at room temperature. Cells were centrifuged, and 15 uL sample per well was added to a new, opaque white 384 well plate (Corning 3570). 15 uL OneGlo (nanoluciferase kit, Promega N1630) was added. Plates were spun down, placed on shaker (300 rpm) for 10 minutes. Plates were read on luminometer, 1000 ms integration time per well. 15 uL Stop and Glo (nanoluciferase kit) was added. Plates were spun down, placed on shaker (300 rpm) for 10 minutes. Plates were read on luminometer, 1000 ms second integration time per well. Recordings are provided below in Table 4

T1 sequence (O75460 19-977): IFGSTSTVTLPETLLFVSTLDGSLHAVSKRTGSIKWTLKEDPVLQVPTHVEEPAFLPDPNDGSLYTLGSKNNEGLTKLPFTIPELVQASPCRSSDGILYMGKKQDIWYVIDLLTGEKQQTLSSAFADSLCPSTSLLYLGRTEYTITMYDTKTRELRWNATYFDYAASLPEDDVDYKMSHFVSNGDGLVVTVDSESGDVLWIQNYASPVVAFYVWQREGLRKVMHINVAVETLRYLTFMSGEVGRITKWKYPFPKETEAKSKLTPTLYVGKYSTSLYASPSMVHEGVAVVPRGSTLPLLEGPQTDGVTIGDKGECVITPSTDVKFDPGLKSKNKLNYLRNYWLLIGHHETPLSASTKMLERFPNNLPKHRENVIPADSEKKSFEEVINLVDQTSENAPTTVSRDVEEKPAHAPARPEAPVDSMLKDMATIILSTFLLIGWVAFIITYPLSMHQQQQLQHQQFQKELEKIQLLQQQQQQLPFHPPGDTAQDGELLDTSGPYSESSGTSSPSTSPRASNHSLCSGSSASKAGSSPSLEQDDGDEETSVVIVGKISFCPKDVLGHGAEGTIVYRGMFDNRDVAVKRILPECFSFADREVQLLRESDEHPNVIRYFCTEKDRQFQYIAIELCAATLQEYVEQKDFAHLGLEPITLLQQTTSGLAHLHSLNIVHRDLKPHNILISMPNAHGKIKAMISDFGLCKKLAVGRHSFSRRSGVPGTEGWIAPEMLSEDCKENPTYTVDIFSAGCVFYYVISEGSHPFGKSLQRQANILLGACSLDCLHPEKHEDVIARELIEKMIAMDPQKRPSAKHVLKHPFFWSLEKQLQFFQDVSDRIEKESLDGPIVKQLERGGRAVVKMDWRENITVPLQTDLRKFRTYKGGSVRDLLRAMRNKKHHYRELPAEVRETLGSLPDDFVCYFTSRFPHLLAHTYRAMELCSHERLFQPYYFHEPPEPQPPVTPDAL

Row | Structure (SMILES) | pIC50 [1] | viability at 5 µM [2] [%] | pEC50 [3]
1 | NC1CCC(Nc2ncc(CCc3ccc(NS(=O)(=O)c4ccccc4Cl)cc3)cn2)CC1 (stereo not shown) [Compound 1, N-(4-(2-(2-(((1r,4r)-4-aminocyclohexyl)amino)pyrimidin-5-yl)ethyl)phenyl)-2-chlorobenzenesulfonamide] | 8.30 to 9.00 | > 75 | 7.00 to 7.30
2 | NC1CCC(Nc2ncc(/C=C/c3ccc(NS(=O)(=O)c4ccccc4Cl)nn3)cn2)CC1 (stereo not shown) [Compound 2, N-(6-((E)-2-(2-(((1r,4r)-4-aminocyclohexyl)amino)pyrimidin-5-yl)vinyl)pyridazin-3-yl)-2-chlorobenzenesulfonamide] |  | > 75 | 7.00 to 7.30
3 | NC1CCC(Nc2ncc(CCc3ccc(NS(=O)(=O)c4ccccc4Cl)c(F)c3)cn2)CC1 (stereo not shown) [Compound 8, N-(4-(2-(2-(((1r,4r)-4-aminocyclohexyl)amino)pyrimidin-5-yl)ethyl)-2-fluorophenyl)-2-chlorobenzenesulfonamide] | ≥ 9.00 | > 75 | 5.00 to 7.00
4 | COc1nc(NS(=O)(=O)c2ccccc2Cl)ccc1CCc1cnc(NC2CCC(N)CC2)nc1 (stereo not shown) [Compound 10, N-(5-(2-(2-(((1r,4r)-4-aminocyclohexyl)amino)pyrimidin-5-yl)ethyl)-6-methoxypyridin-2-yl)-2-chlorobenzenesulfonamide] | ≥ 9.00 | > 75 | 
5 | COc1cc(NS(=O)(=O)c2ccccc2Cl)ccc1/C=C/c1cnc(NC2CCC(N)CC2)nc1 (stereo not shown) [Compound 14, N-(4-((E)-2-(2-(((1r,4r)-4-aminocyclohexyl)amino)pyrimidin-5-yl)vinyl)-3-methoxyphenyl)-2-chlorobenzenesulfonamide] | ≥ 9.00 | > 35 | ≥ 8.30
6 | COc1nc(NS(=O)(=O)c2ccccc2Cl)ccc1CCc1cnc(NC2CCC(N(C)C)CC2)nc1 (stereo not shown) [Compound 19, 2-chloro-N-(5-(2-(2-(((1r,4r)-4-(dimethylamino)cyclohexyl)amino)pyrimidin-5-yl)ethyl)-6-methoxypyridin-2-yl)benzenesulfonamide] | ≥ 9.00 | > 75 | 7.30 to 8.30
7 | Cc1nc(NS(=O)(=O)c2ccccc2Cl)c(F)cc1CCc1cnc(NC2CCC(N(C)C)CC2)nc1 (stereo not shown) [Compound 24, 2-chloro-N-(5-(2-(2-(((1r,4r)-4-(dimethylamino)cyclohexyl)amino)pyrimidin-5-yl)ethyl)-3-fluoro-6-methylpyridin-2-yl)benzenesulfonamide] | 8.30 to 9.00 | > 75 | 
8 | Cc1nc(NS(=O)(=O)c2ccccc2Cl)c(F)cc1/C=C/c1cnc(NC2CCC(N(C)C)CC2)nc1 (stereo not shown) [Compound 25, 2-chloro-N-(5-((E)-2-(2-(((1r,4r)-4-(dimethylamino)cyclohexyl)amino)pyrimidin-5-yl)vinyl)-3-fluoro-6-methylpyridin-2-yl)benzenesulfonamide] | ≥ 9.00 | > 75 | 7.30 to 8.30
9 | Cc1cc(NS(=O)(=O)c2ccccc2Cl)ccc1/C=C/c1cnc(NC2CCC(N(C)C)CC2)nc1 (stereo not shown) [Compound 26, 2-chloro-N-(4-((E)-2-(2-(((1r,4r)-4-(dimethylamino)cyclohexyl)amino)pyrimidin-5-yl)vinyl)-3-methylphenyl)benzenesulfonamide] | ≥ 9.00 | > 35 | ≥ 8.30
10 | Cc1cc(NS(=O)(=O)c2ccccc2Cl)cc(F)c1/C=C/c1cnc(NC2CCC(N(C)C)CC2)nc1 (stereo not shown) [Compound 27, 2-chloro-N-(4-((E)-2-(2-(((1r,4r)-4-(dimethylamino)cyclohexyl)amino)pyrimidin-5-yl)vinyl)-3-fluoro-5-methylphenyl)benzenesulfonamide] | ≥ 9.00 | > 50 | ≥ 8.30
11 | COc1nc(NS(=O)(=O)c2ccc(F)c(F)c2Cl)ccc1/C=C/c1cnc(NC2CCC(N(C)C)CC2)nc1 (stereo not shown) [Compound 41, 2-chloro-N-(5-((E)-2-(2-(((1r,4r)-4-(dimethylamino)cyclohexyl)amino)pyrimidin-5-yl)vinyl)-6-methoxypyridin-2-yl)-3,4-difluorobenzenesulfonamide] | ≥ 9.00 | > 75 | 7.30 to 8.30
12 | CCc1nc(NS(=O)(=O)c2cnccc2Cl)ccc1/C=C/c1cnc(NC2CCC(N(C)C)CC2)nc1 (stereo not shown) [Compound 42, 4-chloro-N-(5-((E)-2-(2-(((1r,4r)-4-(dimethylamino)cyclohexyl)amino)pyrimidin-5-yl)vinyl)-6-ethylpyridin-2-yl)pyridine-3-sulfonamide] | ≥ 9.00 |  | 7.30 to 8.30
13 | CNC1CCC(Nc2ncc(C=Cc3ccc(NS(=O)(=O)c4ccccc4Cl)nc3C)cn2)CC1 (stereo not shown) [Compound 44, 2-chloro-N-(6-methyl-5-(2-(2-(((1r,4r)-4-(methylamino)cyclohexyl)amino)pyrimidin-5-yl)vinyl)pyridin-2-yl)benzenesulfonamide] | ≥ 9.00 |  | 7.30 to 8.30
14 | Cc1nc(NS(=O)(=O)c2ccccc2Cl)ccc1/C=C/c1cnc(NC2CCC(N)CC2)nc1 (stereo not shown) [Compound 46, N-(5-((E)-2-(2-(((1r,4r)-4-aminocyclohexyl)amino)pyrimidin-5-yl)vinyl)-6-methylpyridin-2-yl)-2-chlorobenzenesulfonamide] | ≥ 9.00 |  | 7.30 to 8.30
15 | CNC1CCC(Nc2ncc(/C=C/c3ccc(NS(=O)(=O)c4ccccc4Cl)nc3OC)cn2)CC1 (stereo not shown) [Compound 48, 2-chloro-N-(6-methoxy-5-((E)-2-(2-(((1r,4r)-4-(methylamino)cyclohexyl)amino)pyrimidin-5-yl)vinyl)pyridin-2-yl)benzenesulfonamide] | ≥ 9.00 |  | ≥ 8.30
16 | Cc1nc(NS(=O)(=O)c2ccccc2Cl)ccc1/C=C/c1cnc(NC23CCC(N)(CC2)CC3)nc1 [Compound 49, (E)-N-(5-(2-(2-((4-aminobicyclo[2.2.2]octan-1-yl)amino)pyrimidin-5-yl)vinyl)-6-methylpyridin-2-yl)-2-chlorobenzenesulfonamide] | ≥ 9.00 |  | 5.00 to 7.00
17 | COc1nc(NS(=O)(=O)c2ccccc2Cl)c(F)cc1/C=C/c1cnc(NC2CCC(N(C)C)CC2)nc1 (stereo not shown) [Compound 50, 2-chloro-N-(5-((E)-2-(2-(((1r,4r)-4-(dimethylamino)cyclohexyl)amino)pyrimidin-5-yl)vinyl)-3-fluoro-6-methoxypyridin-2-yl)benzenesulfonamide] | ≥ 9.00 |  | 7.30 to 8.30
18 | COc1nc(NS(=O)(=O)c2cccc(Cl)c2Cl)ccc1/C=C/c1cnc(NC2CCC(N(C)C)CC2)nc1 (stereo not shown) [Compound 51, 2,3-dichloro-N-(5-((E)-2-(2-(((1r,4r)-4-(dimethylamino)cyclohexyl)amino)pyrimidin-5-yl)vinyl)-6-methoxypyridin-2-yl)benzenesulfonamide] | ≥ 9.00 |  | ≥ 8.30
19 | COc1cc(NS(=O)(=O)c2ccccc2Cl)ccc1/C=C/c1cnc(NC2CCC(N(C)C)CC2)nc1 (stereo not shown) [Compound 55, 2-chloro-N-(4-((E)-2-(2-(((1r,4r)-4-(dimethylamino)cyclohexyl)amino)pyrimidin-5-yl)vinyl)-3-methoxyphenyl)benzenesulfonamide] | ≥ 9.00 |  | ≥ 8.30

Reference: patent publication US11945784B2, “IRE1 small molecule inhibitors” (Cornell University, priority 2018, dated 2024)
